Reference: PubChem BioAssay AID248 (DTP/NCI, 2004)
“And” between values parts separate entries of the source, which are not always exact repeats. Identical values can stand only once. Toxic doses and inconclusive results are not listed. Rule as the data show it: active = T/C of 150% or more; inactive = T/C below 125%.

Test system: L1210 leukemia ip in BDF1 mice, survival T/C
Experiment: NCI In Vivo Anticancer Drug Screen. Data for tumor model L1210 Leukemia (intraperitoneal) in B6D2F1 (BDF1) mice
Details: endpoint: mean survival time, higher = longer survival
Outline: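 Tumor was transplanted into mice, which were then dosed with test compound or vehicle alone. Survival was recorded for each group, and the treated figure was expressed relative to the control figure.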

[1] = dose: 100.0 mg/kg/injection, schedule: Q04DX002 (ip), vehicle: Klucel (hydroxypropylcellulose) (HPC)
[2] = dose: 200.0 mg/kg/injection, schedule: Q04DX002 (ip), vehicle: Klucel (hydroxypropylcellulose) (HPC)
[3] = dose: 100.0 mg/kg/injection, schedule: Q04DX003 (ip), vehicle: saline with Tween-80
[4] = dose: 200.0 mg/kg/injection, schedule: Q04DX003 (ip), vehicle: saline with Tween-80
[5] = dose: 400.0 mg/kg/injection, schedule: Q04DX003 (ip), vehicle: saline with Tween-80
[6] = dose: 100.0 mg/kg/injection, schedule: Q01DX001 (ip), vehicle: carboxymethylcellulose (CMC)
[7] = dose: 200.0 mg/kg/injection, schedule: Q01DX001 (ip), vehicle: carboxymethylcellulose (CMC)
[8] = dose: 400.0 mg/kg/injection, schedule: Q01DX001 (ip), vehicle: carboxymethylcellulose (CMC)
[9] = dose: 100.0 mg/kg/injection, schedule: Q01DX001 (ip), vehicle: saline
[10] = dose: 200.0 mg/kg/injection, schedule: Q01DX001 (ip), vehicle: saline
[11] = dose: 400.0 mg/kg/injection, schedule: Q01DX001 (ip), vehicle: saline
[12] = dose: 50.0 mg/kg/injection, schedule: Q01DX009 (ip), vehicle: Klucel (hydroxypropylcellulose) (HPC)
[13] = dose: 100.0 mg/kg/injection, schedule: Q01DX009 (ip), vehicle: Klucel (hydroxypropylcellulose) (HPC)
[14] = dose: 200.0 mg/kg/injection, schedule: Q01DX009 (ip), vehicle: Klucel (hydroxypropylcellulose) (HPC)
[15] = dose: 100.0 mg/kg/injection, schedule: Q04DX002 (ip), vehicle: saline with Tween-80
[16] = dose: 200.0 mg/kg/injection, schedule: Q04DX002 (ip), vehicle: saline with Tween-80
[17] = dose: 400.0 mg/kg/injection, schedule: Q04DX002 (ip), vehicle: saline with Tween-80

Measured: T/C

CCCCNC(=S)NNC(=O)c1ccncc1
inactive: [1] 107 % of control | [2] 95 % of control and 105 % of control | dose: 400.0 mg/kg/injection, schedule: Q04DX002 (ip), vehicle: Klucel (hydroxypropylcellulose) (HPC) 96 % of control and 98 % of control

CC(C)c1nc(-c2ccccc2)c(-c2ccccc2)[nH]1
inactive: [3] 93 % of control | [4] 98 % of control | [5] 93 % of control

CC(=O)OCC(=O)C1(O)C(C)CC2C3C=C(C)C4=Cc5c(cnn5-c5ccccc5)CC4(C)C3C(O)CC21C (stereo unspecified)
inactive: dose: 8.0 mg/kg/injection, schedule: Q01DX001 (sc), vehicle: steriod suspending solution 110 % of control | dose: 16.0 mg/kg/injection, schedule: Q01DX001 (sc), vehicle: steriod suspending solution 105 % of control | dose: 32.0 mg/kg/injection, schedule: Q01DX001 (sc), vehicle: steriod suspending solution 113 % of control | dose: 45.0 mg/kg/injection, schedule: Q01DX001 (sc), vehicle: steriod suspending solution 106 % of control | dose: 70.0 mg/kg/injection, schedule: Q01DX001 (sc), vehicle: steriod suspending solution 89 % of control | dose: 105.0 mg/kg/injection, schedule: Q01DX001 (sc), vehicle: steriod suspending solution 95 % of control | dose: 160.0 mg/kg/injection, schedule: Q01DX001 (sc), vehicle: steriod suspending solution 98 % of control | dose: 240.0 mg/kg/injection, schedule: Q01DX001 (sc), vehicle: steriod suspending solution 110 % of control | dose: 360.0 mg/kg/injection, schedule: Q01DX001 (sc), vehicle: steriod suspending solution 93 % of control

COC(=O)NS(=O)(=O)c1ccn(C)c1
inactive: dose: 100.0 mg/kg/injection, schedule: Q01DX001 (ip), vehicle: Klucel (hydroxypropylcellulose) (HPC) 97 % of control | dose: 100.0 mg/kg/injection, schedule: Q04DX003 (ip), vehicle: Klucel (hydroxypropylcellulose) (HPC) 100 % of control | dose: 200.0 mg/kg/injection, schedule: Q01DX001 (ip), vehicle: Klucel (hydroxypropylcellulose) (HPC) 98 % of control | dose: 200.0 mg/kg/injection, schedule: Q04DX003 (ip), vehicle: Klucel (hydroxypropylcellulose) (HPC) 100 % of control | dose: 400.0 mg/kg/injection, schedule: Q01DX001 (ip), vehicle: Klucel (hydroxypropylcellulose) (HPC) 104 % of control | dose: 400.0 mg/kg/injection, schedule: Q04DX003 (ip), vehicle: Klucel (hydroxypropylcellulose) (HPC) 100 % of control

ClP1(c2ccccc2)=NP(Cl)(c2ccccc2)=NP(Cl)(c2ccccc2)=NP(Cl)(c2ccccc2)=N1 (stereo unspecified)
inactive: dose: 50.0 mg/kg/injection, schedule: Q01DX009 (ip), vehicle: saline with Tween-80 97 % of control | dose: 100.0 mg/kg/injection, schedule: Q01DX009 (ip), vehicle: saline with Tween-80 89 % of control

CCCC1(c2ccsc2)NC(=O)NC1=O (stereo unspecified)
inactive: [6] 98 % of control | [7] 98 % of control | [8] 90 % of control

Cn1nnc(CCO)n1
inactive: [9] 95 % of control | [10] 95 % of control | [11] 100 % of control

O=C(O)C1CC(c2ccccc2)=C(c2ccccc2)CC1C(=O)O (stereo unspecified)
inactive: dose: 50.0 mg/kg/injection, schedule: Q04DX002 (ip), vehicle: Klucel (hydroxypropylcellulose) (HPC) 105 % of control | [1] 102 % of control and 114 % of control and 100 % of control | [2] 102 % of control and 100 % of control

CC(CCN(CC(=O)O)CC(=O)O)N(CC(=O)O)CC(=O)O (stereo unspecified)
inactive: [9] 98 % of control | [10] 101 % of control | [11] 93 % of control

CCOC(=O)C(C)(N)CCOCc1ccccc1 (stereo unspecified)
inactive: dose: 50.0 mg/kg/injection, schedule: Q01DX001 (ip), vehicle: carboxymethylcellulose (CMC) 100 % of control | [6] 102 % of control | [7] 100 % of control | [8] 104 % of control

O=C(O)/C(=C\c1[nH]c(=O)[nH]c(=O)c1Br)NC(=O)c1ccccc1
inactive: [3] 104 % of control | [4] 103 % of control | [5] 101 % of control

COC(=O)C1CNN=C1C(=O)N1Cc2cc3ccccc3nc2C1 (stereo unspecified)
inactive: dose: 10.0 mg/kg/injection, schedule: Q04DX003 (ip), vehicle: saline 94 % of control | dose: 20.0 mg/kg/injection, schedule: Q04DX003 (ip), vehicle: saline 97 % of control | dose: 40.0 mg/kg/injection, schedule: Q04DX003 (ip), vehicle: saline 91 % of control | dose: 80.0 mg/kg/injection, schedule: Q04DX003 (ip), vehicle: saline 97 % of control | dose: 160.0 mg/kg/injection, schedule: Q04DX003 (ip), vehicle: saline 99 % of control

Cc1ncc(O)c(CO)c1O
inactive: dose: 50.0 mg/kg/injection, schedule: Q01DX001 (ip), vehicle: saline 108 % of control | [9] 96 % of control | [10] 96 % of control | [11] 96 % of control

O=C(O)C1C2CC3C(C2)C31 (stereo unspecified)
inactive: dose: 100.0 mg/kg/injection, schedule: Q04DX003 (ip), vehicle: other 97 % of control | dose: 200.0 mg/kg/injection, schedule: Q04DX003 (ip), vehicle: other 98 % of control | dose: 400.0 mg/kg/injection, schedule: Q04DX003 (ip), vehicle: other 88 % of control

CC(=O)Nc1ccc(S(=O)(=O)c2ccc(NC(C)=O)cc2)cc1
inactive: [12] 103 % of control | [13] 93 % of control | [14] 97 % of control

O=C(/C=C/c1ccccc1Cl)c1ccccc1
inactive: [12] 99 % of control | [13] 92 % of control | [14] 96 % of control

O=C1C(=O)C(c2ccccc2)(c2ccccc2)c2cc(-c3ccccc3)c(-c3ccccc3)cc21
inactive: [4] 93 % of control

COc1cc(N(CCCl)CCCl)ccc1C=Nc1ccccc1-n1ccnc1
inactive: dose: 68.8 mg/kg/injection, schedule: Q04DX002 (ip), vehicle: Klucel (hydroxypropylcellulose) (HPC) 102 % of control | dose: 137.5 mg/kg/injection, schedule: Q04DX002 (ip), vehicle: Klucel (hydroxypropylcellulose) (HPC) 91 % of control | dose: 275.0 mg/kg/injection, schedule: Q04DX002 (ip), vehicle: Klucel (hydroxypropylcellulose) (HPC) 102 % of control

CCOC(=O)c1ccc(Nc2nnc(-c3ccc(OC)cc3OC)s2)cc1
inactive: [15] 104 % of control | [16] 104 % of control | [17] 101 % of control

COc1cc(CC2COC(=O)C2Cc2ccc(OC3OC(CO)C(O)C(O)C3O)c(OC)c2)ccc1O (stereo unspecified)
inactive: dose: 25.0 mg/kg/injection, schedule: Q04DX002 (ip), vehicle: saline 111 % of control | dose: 50.0 mg/kg/injection, schedule: Q04DX002 (ip), vehicle: saline 104 % of control | dose: 100.0 mg/kg/injection, schedule: Q04DX002 (ip), vehicle: saline 107 % of control

CCC(Cl)COP(=O)(OCC(Cl)CC)C(C(C)C)P(=O)(OCC(Cl)CC)OCC(Cl)CC (stereo unspecified)
inactive: [15] 96 % of control | [16] 100 % of control | [17] 89 % of control

C/C(=C(/CCO)SCCC(=O)c1ccc(Cl)cc1)N(C=O)Cc1cnc(C)nc1N
inactive: dose: 100.0 mg/kg/injection, schedule: Q04DX003 (ip), vehicle: saline 97 % of control | dose: 200.0 mg/kg/injection, schedule: Q04DX003 (ip), vehicle: saline 93 % of control | dose: 400.0 mg/kg/injection, schedule: Q04DX003 (ip), vehicle: saline 97 % of control
